# Reference: patent publication US20100105674A1, “Chemical Compounds” (priority 2007, published 2010)
# Molecular target: T1, Wee1 (Homo sapiens, UniProt P30291)
# T1 construct: endogenous in cells; host or cells: HeLa
# Assay: Cell assay for Wee1 inhibitory activity (cell-based ELISA, phospho-cdc2(Tyr15))
# Settings: Hela cells synchronized using aphidicolin; phosphorylation level of cdc2 (Tyr15) by sandwich ELISA
# Excerpt: Cell Assay for Wee1 Inhibitory Activity
# Wee1 inhibitory activity can be measured using a cell-based ELISA assay. Hela cells are synchronized using aphidicolin, which blocks the entry of cells into S-phase. Cells in G2-M transition phase are then obtained by releasing the cells from aphidicolin treatment for approximately 7-9 hrs. The phosphorylation level of the Wee1 target cdc2 may then be measured by sandwich ELISA using an anti-cdc2 antibody and an anti-phospho-cdc2(Tyr15) antibody. This cell assay was used to calculate a pIC50 for the compounds described in Examples 2, 3, and 19.
# T1 sequence (P30291 whole entry): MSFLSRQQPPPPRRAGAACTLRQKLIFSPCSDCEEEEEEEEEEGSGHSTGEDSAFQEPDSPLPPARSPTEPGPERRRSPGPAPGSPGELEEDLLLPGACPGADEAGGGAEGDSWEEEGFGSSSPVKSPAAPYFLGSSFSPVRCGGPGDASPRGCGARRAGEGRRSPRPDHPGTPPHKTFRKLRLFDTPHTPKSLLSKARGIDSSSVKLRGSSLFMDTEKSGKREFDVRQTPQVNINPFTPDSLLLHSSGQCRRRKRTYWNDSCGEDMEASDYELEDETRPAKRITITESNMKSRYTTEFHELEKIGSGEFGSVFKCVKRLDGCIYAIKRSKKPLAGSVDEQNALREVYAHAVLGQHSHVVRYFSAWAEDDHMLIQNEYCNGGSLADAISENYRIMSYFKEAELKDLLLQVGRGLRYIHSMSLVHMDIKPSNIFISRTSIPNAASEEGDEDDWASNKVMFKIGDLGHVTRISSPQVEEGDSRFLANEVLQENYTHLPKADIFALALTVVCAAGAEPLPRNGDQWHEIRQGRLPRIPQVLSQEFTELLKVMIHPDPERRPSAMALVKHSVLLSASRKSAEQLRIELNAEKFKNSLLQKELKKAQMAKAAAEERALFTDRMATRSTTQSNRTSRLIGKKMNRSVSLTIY
row,IC50 [µM],Structure (SMILES)
1,≤ 10,"CCC(C)NC(=O)c1ccccc1Nc1nc(Nc2cccc(CCN3CCOCC3)c2)ncc1Br (stereo not drawn) [Example 3, 2-{[5-bromo-2-({3-[2-(4-morpholinyl)ethyl]phenyl}amino)-4-pyrimidinyl]amino}-N-(1-methylpropyl)benzamide]"
2,≤ 10,"COc1ccccc1Nc1nc(Nc2cccc(OCCN(C)C)c2)ncc1Br [Example 19, 5-bromo-N^2-(3-{[2-(dimethylamino)ethyl]oxy}phenyl)-N^4-[2-(methyloxy)phenyl]-2,4-pyrimidinediamine]"
3,≤ 10,"CCN(CC)CCOc1ccc(Nc2ncc(Br)c(Nc3ccccc3OC)n2)cc1 [Example 2, 5-bromo-N^2-(4-{[2-(diethylamino)ethyl]oxy}phenyl)-N^4-[2-(methyloxy)phenyl]-2,4-pyrimidinediamine]"
